Tests used:
Test in all cases: relative viability (nuclei count vs DMSO), 5 days (fraction); higher = more cells survive
[1] = compound: O=C(CCCCCCNC(=O)c1cnc(N(c2ccccc2)c2ccccc2)nc1)NO [Ricolinostat] + CC1(C)CCC(c2ccc(Cl)cc2)=C(CN2CCN(c3ccc(C(=O)NS(=O)(=O)c4ccc(N[C@H](CCN5CCOCC5)CSc5ccccc5)c(S(=O)(=O)C(F)(F)F)c4)cc3)CC2)C1 [Navitoclax] (partner 0.5 µM)
Method in brief: (§1)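 Lung cancer cell lines in 1536-well plates got either a single drug or a fixed anchor-drug dose together with five library-drug doses (not always all listed) in √10 steps, by pin tool, on the day after seeding. Nuclei were counted after 5 days, and relative viability is the treated-to-vehicle ratio of nuclei counts. Values are medians of duplicate plates.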

Ricolinostat + Foretinib = compound: O=C(CCCCCCNC(=O)c1cnc(N(c2ccccc2)c2ccccc2)nc1)NO [Ricolinostat] + COc1cc2c(Oc3ccc(NC(=O)C4(C(=O)Nc5ccc(F)cc5)CC4)cc3F)ccnc2cc1OCCCN1CCOCC1 [Foretinib] (partner 0.25 µM)
Method in brief: as §1

Ricolinostat + Dasatinib = compound: O=C(CCCCCCNC(=O)c1cnc(N(c2ccccc2)c2ccccc2)nc1)NO [Ricolinostat] + Cc1nc(Nc2ncc(C(=O)Nc3c(C)cccc3Cl)s2)cc(N2CCN(CCO)CC2)n1 [Dasatinib] (partner 0.075 µM)
Method in brief: as §1

[2] = compound: O=C(CCCCCCNC(=O)c1cnc(N(c2ccccc2)c2ccccc2)nc1)NO [Ricolinostat] + Nc1nc2[nH]cc(CCc3ccc(C(=O)N[C@@H](CCC(=O)O)C(=O)O)cc3)c2c(=O)[nH]1 [Pemetrexed] (partner 0.2 µM)
Method in brief: as §1

| Cell Line | relative viability ([1]; first compound 0.08 µM) | relative viability ([1]; first compound 0.253 µM) | relative viability ([1]; first compound 0.8 µM) | relative viability ([1]; first compound 2.53 µM) | relative viability (Ricolinostat + Foretinib; first compound 0.253 µM) | relative viability (Ricolinostat + Foretinib; first compound 0.8 µM) | relative viability (Ricolinostat + Foretinib; first compound 2.53 µM) | relative viability (Ricolinostat + Dasatinib; first compound 0.08 µM) | relative viability (Ricolinostat + Dasatinib; first compound 0.253 µM) | relative viability (Ricolinostat + Dasatinib; first compound 0.8 µM) | relative viability (Ricolinostat + Dasatinib; first compound 2.53 µM) | relative viability ([2]; first compound 0.08 µM) | relative viability ([2]; first compound 0.253 µM) | relative viability ([2]; first compound 0.8 µM) | relative viability ([2]; first compound 2.53 µM) | relative viability (Ricolinostat + Foretinib; first compound 0.08 µM) |
| --- | --- | --- | --- | --- | --- | --- | --- | --- | --- | --- | --- | --- | --- | --- | --- | --- |
| NCI-H2347 | 0.623 | 0.739 | 0.73 | 0.671 | 1.04 | 0.792 | 0.802 | 0.318 | 0.372 | 0.309 | 0.285 | 0.409 | 0.382 | 0.429 | 0.449 | – |
| RERF-LC-KJ | 0.831 | 0.993 | 0.841 | 0.787 | 0.795 | 0.88 | 0.802 | 0.743 | 0.759 | 0.748 | 0.518 | 0.492 | 0.427 | 0.447 | 0.374 | 0.842 |
| BEN | 0.0553 | 0.084 | 0.0569 | 0.0652 | 0.598 | 0.483 | 0.481 | 0.269 | 0.322 | 0.279 | 0.213 | 0.589 | 0.88 | 0.667 | 0.518 | 0.657 |
| NCI-H1944 | 0.993 | 0.972 | 1.04 | 0.901 | 0.835 | 0.689 | 0.641 | 0.189 | 0.212 | 0.194 | 0.201 | 0.565 | 0.588 | 0.565 | 0.39 | 0.828 |
| 201T | 1.21 | 1.16 | 1.23 | 1.24 | 1.09 | 1.14 | 1.08 | 0.471 | 0.571 | 0.603 | 0.498 | 0.339 | 0.314 | 0.334 | 0.311 | – |
| NCI-H647 | 0.806 | 1.12 | 1.09 | 1.09 | 1 | 1.01 | 1.02 | 0.109 | 0.144 | 0.181 | 0.246 | 0.192 | 0.18 | 0.174 | 0.134 | 1 |
| NCI-H441 | 0.77 | 0.411 | 0.798 | 0.357 | 0.878 | 0.872 | 0.921 | – | 0.586 | 0.601 | 0.538 | 0.267 | 0.25 | 0.289 | 0.272 | – |
| PC-3 [JPC-3] | 0.778 | 0.77 | 0.739 | 0.574 | 0.933 | 0.969 | 0.827 | – | 0.905 | 0.993 | 0.903 | 0.845 | 1.11 | 0.738 | 1 | – |
| NCI-H2126 | 0.666 | 0.807 | 0.836 | 0.679 | 1.23 | 1.16 | 1 | – | 0.618 | 0.616 | 0.492 | 0.509 | 0.708 | 0.619 | 0.583 | 0.864 |
| HCC-15 | 0.649 | 0.75 | 0.767 | 0.616 | 1.03 | 1.05 | 1.05 | 0.537 | 0.665 | 0.642 | 0.653 | 0.22 | 0.214 | 0.231 | 0.234 | 0.876 |
| NCI-H2085 | – | 1.14 | 1 | 0.947 | 0.867 | 1.02 | 0.783 | 0.205 | 0.256 | 0.18 | 0.217 | – | 0.799 | 0.738 | 0.758 | – |
| LOU-NH91 | – | 0.777 | 0.642 | 0.6 | 0.904 | 0.97 | 0.918 | 0.453 | 0.543 | 0.558 | 0.533 | – | 0.327 | 0.378 | 0.367 | 0.742 |
| NCI-H3122 | 0.918 | 0.984 | 1.07 | 1.14 | 0.959 | 1.08 | 1.13 | 0.791 | 0.903 | 0.899 | 0.562 | 0.18 | 0.205 | 0.207 | 0.198 | 0.98 |
| HOP-62 | 0.887 | 1.01 | 1.03 | 1.08 | 1.03 | 1 | 1.09 | 0.533 | 0.669 | 0.655 | 0.423 | 0.304 | 0.28 | 0.337 | 0.319 | 1 |
| LU99A | 0.782 | 0.701 | 0.603 | 0.491 | 0.631 | 0.734 | 0.571 | 0.461 | 0.583 | 0.465 | 0.512 | 0.188 | 0.159 | 0.184 | 0.156 | 0.727 |
| NCI-H2405 | 0.577 | 0.935 | 0.975 | 0.77 | 1.05 | 1.07 | 1.11 | 0.229 | 0.205 | 0.183 | 0.193 | 0.916 | 1.04 | 1.06 | 1.12 | 0.927 |
| PC-14 | 0.968 | 0.947 | 1.05 | 0.962 | 0.898 | 0.892 | 0.828 | 0.243 | 0.248 | 0.267 | 0.233 | 0.147 | 0.139 | 0.141 | 0.195 | 0.954 |
| COR-L23 | 0.943 | 1.07 | 0.978 | 0.511 | 0.965 | 0.87 | 0.653 | 0.373 | 0.477 | 0.471 | 0.242 | 0.199 | 0.212 | 0.188 | 0.17 | 0.973 |
| NCI-H1666 | 0.909 | 1.12 | 0.816 | 0.471 | 1.01 | 1.02 | 0.914 | 0.804 | 0.875 | 0.827 | 0.622 | 0.805 | 0.841 | 0.867 | 0.871 | 0.967 |
